The record followed here is patent US20250388605A1, “HETEROBIFUNCTIONAL COMPOUNDS AND METHODS OF TREATING DISEASE” (Halda Therapeutics OpCo, Inc., priority 2022, published 2025).

Assay [1] addresses T1, androgen receptor (Homo sapiens, UniProt P10275).
T1 construct: host or cells: unnamed cells, cytosolic fraction
T1 sequence (P10275 1-920): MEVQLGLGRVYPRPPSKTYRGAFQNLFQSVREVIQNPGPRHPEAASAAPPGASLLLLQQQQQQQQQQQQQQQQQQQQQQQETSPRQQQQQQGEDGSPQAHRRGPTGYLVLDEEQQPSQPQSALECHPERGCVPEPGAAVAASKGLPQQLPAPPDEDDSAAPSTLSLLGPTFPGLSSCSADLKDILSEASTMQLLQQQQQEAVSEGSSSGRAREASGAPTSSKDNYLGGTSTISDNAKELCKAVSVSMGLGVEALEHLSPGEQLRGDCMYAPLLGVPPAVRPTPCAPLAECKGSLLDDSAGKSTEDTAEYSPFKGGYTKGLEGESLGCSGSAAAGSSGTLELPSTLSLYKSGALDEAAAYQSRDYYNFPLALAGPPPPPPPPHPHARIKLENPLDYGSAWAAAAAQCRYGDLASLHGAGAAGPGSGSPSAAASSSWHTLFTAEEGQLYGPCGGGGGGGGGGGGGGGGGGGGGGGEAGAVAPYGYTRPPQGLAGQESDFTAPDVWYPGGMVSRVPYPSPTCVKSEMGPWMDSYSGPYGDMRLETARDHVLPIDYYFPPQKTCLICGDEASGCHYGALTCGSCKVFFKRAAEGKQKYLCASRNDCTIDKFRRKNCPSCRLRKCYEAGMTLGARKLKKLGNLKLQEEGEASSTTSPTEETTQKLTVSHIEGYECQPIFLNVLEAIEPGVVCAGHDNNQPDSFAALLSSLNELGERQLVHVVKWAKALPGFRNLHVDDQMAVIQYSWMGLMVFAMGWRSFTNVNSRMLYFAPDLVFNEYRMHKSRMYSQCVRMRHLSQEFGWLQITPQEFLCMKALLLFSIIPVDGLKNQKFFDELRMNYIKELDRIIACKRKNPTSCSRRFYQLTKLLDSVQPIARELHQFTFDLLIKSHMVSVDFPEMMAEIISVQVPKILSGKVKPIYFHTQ
Kind of assay: Assay for binding affinity to androgen receptor ([3H]methyltrienolone radioligand competition, cell cytosol). The settings on record: binding to the androgen receptor, 1 nM [3H]methyltrienolone, 24 hr at 4° C.

Assay [2] concerns the target T2, progesterone receptor (Homo sapiens, UniProt P06401).
T2 sequence (P06401 679-933 limits assumed): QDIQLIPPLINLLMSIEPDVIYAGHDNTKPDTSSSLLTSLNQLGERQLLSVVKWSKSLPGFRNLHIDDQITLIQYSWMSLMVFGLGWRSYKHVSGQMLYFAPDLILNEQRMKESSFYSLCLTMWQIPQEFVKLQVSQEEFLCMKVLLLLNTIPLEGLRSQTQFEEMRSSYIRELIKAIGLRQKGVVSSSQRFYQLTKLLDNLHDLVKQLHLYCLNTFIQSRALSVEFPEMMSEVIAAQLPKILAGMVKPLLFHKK
Kind of assay: PR Human Progesterone NHR Binding (Agonist Radioligand) Assay, [3H]progesterone, T47D cytosolic fractions. The settings on record: 0.5 nM [3H]progesterone, 1 hour at 4° C. As to the method:
Exemplary compounds were tested for ability to bind to the progesterone receptor.
Compounds were tested using the PR Human Progesterone NHR Binding (Agonist Radioligand) Assay, Cerep at Eurofins Discovery using a modified version of the protocol from Sarup et al. (Cancer Res 1988; 48:5071-5078). Briefly, cytosolic fractions of T47D cells were incubated with 0.5 nM [^3H]progesterone for 1 hour at 4° C. in the absence or presence of the test compound. Nonspecific binding was determined in the presence of […] promegestone. Reactions were subjected to scintillation counting. Results are expressed as a percent inhibition of the control radioligand specific binding.

The structures appear in SMILES notation.

With `CCS(=O)(=O)c1ccc(Oc2cccc(OCCOC3CCN(c4ccc(C(=O)N[C@H]5C(C)(C)[C@H](Oc6ccc(C#N)c(Cl)c6)C5(C)C)cn4)CC3)c2F)c(-c2cn(C)c(=O)c3[nH]ccc23)c1` [Compound I-185], the Ki in assay [1] and in assay [2] was under 0.05 µM throughout. With `CCS(=O)(=O)Nc1ccc(Oc2cccc(CCOC3CCN(c4ncc(C(=O)N[C@H]5C(C)(C)[C@H](Oc6ccc(C#N)c(Cl)c6)C5(C)C)cn4)CC3)c2)c(-c2cn(C)c(=O)c3[nH]ccc23)c1` [Compound I-19], the Ki in assay [1] and in assay [2] was under 0.05 µM in each case.

Regarding `Cn1cc(-c2cc(N)ccc2Oc2cccc(OCCC3CCN(c4ncc(C(=O)N[C@H]5C(C)(C)[C@H](Oc6ccc(C#N)c(Cl)c6)C5(C)C)cn4)CC3)c2)c2cc[nH]c2c1=O` [Compound I-101], the Ki in assay [1] was under 0.05 µM.

In the case of `CCS(=O)(=O)Nc1ccc(Oc2ccc(OCC3CCN(c4ncc(C(=O)N[C@H]5C(C)(C)[C@H](Oc6ccc(C#N)c(Cl)c6)C5(C)C)cn4)CC3)cc2)c(-c2cn(C)c(=O)c3[nH]ccc23)c1` [Compound I-138], the Ki in assay [1] is under 0.05 µM. On to `CCS(=O)(=O)Nc1ccc(Oc2cccc(OCCOC3CCN(c4ccc(C(=O)N[C@H]5C(C)(C)[C@H](Oc6ccc(C#N)c(Cl)c6)C5(C)C)nn4)CC3)c2)c(-c2cn(C)c(=O)c3[nH]ccc23)c1` [Compound I-11], for which the Ki in assay [1] is under 0.05 µM.

With `Cn1cc(-c2cc(C(C)(C)O)ccc2Oc2ccc(N3CC(CC4CCN(c5ncc(C(=O)N[C@H]6C(C)(C)[C@H](Oc7ccc(C#N)c(Cl)c7)C6(C)C)cn5)CC4)C3)cc2)c2cc[nH]c2c1=O` [Compound I-232], the Ki in assay [1] and in assay [2] was under 0.05 µM in each case. Molecule `CCS(=O)(=O)Nc1ccc(Oc2cccc(OCCN(C)c3ncc(C(=O)N[C@H]4C(C)(C)[C@H](Oc5ccc(C#N)c(Cl)c5)C4(C)C)cn3)c2)c(-c2cn(C)c(=O)c3[nH]ccc23)c1` [Compound I-1, N-((1r, 3r)-3-(3-chloro-4-cyanophenoxy)-2,2,4,4-tetramethylcyclobutyl)-2-((2-(3-(4-(ethylsulfonamido)-2-(6-methyl-7-oxo-6,7-dihydro-1H-pyrrolo[2,3-c]pyridin-4-yl)phenoxy)phenoxy)ethyl)(methyl)amino)pyrimidine-5-carboxamide] yielded a Ki in assay [1] of under 0.05 µM.
